Measurements taken from ChEMBL document CHEMBL5465560, “Selectivity Literature for EUbOPEN Chemogenomic Library” (2024).

How the values were obtained:
[1] = target: T1, Serine/threonine-protein kinase TAO2 (Homo sapiens) (UniProt Q9UL54); experiment: Selectivity interaction (Kinase panel (KiNativ target engagement assay in Jurkat cells)) EUB0001635a TAOK2; assay type: cell-based; details: Selectivity number of off-targets 0.0, Selectivity number of targets 233.0, Source Knowledge https://www.sciencedirect.com/science/article/pii/S2451945619300674?via%3Dihub, at 1 µM
T1 sequence (whole entry): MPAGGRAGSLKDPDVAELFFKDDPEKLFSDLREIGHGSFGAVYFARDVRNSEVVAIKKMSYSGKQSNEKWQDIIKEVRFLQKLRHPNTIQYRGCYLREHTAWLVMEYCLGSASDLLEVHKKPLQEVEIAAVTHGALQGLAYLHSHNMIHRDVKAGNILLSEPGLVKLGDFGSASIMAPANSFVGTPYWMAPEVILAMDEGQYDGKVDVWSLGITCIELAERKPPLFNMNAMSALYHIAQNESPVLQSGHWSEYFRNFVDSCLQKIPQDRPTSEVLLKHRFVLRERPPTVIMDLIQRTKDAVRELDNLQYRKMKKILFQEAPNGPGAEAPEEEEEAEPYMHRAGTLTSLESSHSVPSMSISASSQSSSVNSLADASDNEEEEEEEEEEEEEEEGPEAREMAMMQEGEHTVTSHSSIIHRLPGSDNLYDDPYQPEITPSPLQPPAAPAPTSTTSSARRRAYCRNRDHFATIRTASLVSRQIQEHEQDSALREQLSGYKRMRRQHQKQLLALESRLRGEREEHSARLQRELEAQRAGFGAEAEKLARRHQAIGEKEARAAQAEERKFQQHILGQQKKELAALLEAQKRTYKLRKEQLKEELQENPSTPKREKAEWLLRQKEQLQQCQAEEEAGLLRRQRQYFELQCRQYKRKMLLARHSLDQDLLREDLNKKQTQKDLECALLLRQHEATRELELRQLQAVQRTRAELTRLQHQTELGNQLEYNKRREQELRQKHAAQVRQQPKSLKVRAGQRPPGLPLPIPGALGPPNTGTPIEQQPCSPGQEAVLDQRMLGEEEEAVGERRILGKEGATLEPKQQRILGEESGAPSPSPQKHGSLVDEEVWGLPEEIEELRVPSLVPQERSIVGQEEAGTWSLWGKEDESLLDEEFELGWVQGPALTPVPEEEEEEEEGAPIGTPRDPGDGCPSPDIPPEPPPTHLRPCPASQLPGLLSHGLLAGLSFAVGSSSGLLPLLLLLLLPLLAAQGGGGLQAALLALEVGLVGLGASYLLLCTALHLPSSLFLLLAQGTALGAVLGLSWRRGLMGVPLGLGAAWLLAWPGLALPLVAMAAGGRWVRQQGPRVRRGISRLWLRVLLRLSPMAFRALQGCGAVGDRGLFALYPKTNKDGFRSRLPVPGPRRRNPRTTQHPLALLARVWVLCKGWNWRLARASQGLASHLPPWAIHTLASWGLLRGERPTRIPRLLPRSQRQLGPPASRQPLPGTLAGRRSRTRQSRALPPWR

[2] = target: Ribosomal protein S6 kinase alpha-5 (Homo sapiens) (UniProt O75582); experiment: Selectivity interaction (KinomeScan (DiscoverX)) EUB0000695a RPS6KA5; details: at 100 nM
Ribosomal protein S6 kinase alpha-5 (Homo sapiens), sequence (O75582 whole entry, looked up): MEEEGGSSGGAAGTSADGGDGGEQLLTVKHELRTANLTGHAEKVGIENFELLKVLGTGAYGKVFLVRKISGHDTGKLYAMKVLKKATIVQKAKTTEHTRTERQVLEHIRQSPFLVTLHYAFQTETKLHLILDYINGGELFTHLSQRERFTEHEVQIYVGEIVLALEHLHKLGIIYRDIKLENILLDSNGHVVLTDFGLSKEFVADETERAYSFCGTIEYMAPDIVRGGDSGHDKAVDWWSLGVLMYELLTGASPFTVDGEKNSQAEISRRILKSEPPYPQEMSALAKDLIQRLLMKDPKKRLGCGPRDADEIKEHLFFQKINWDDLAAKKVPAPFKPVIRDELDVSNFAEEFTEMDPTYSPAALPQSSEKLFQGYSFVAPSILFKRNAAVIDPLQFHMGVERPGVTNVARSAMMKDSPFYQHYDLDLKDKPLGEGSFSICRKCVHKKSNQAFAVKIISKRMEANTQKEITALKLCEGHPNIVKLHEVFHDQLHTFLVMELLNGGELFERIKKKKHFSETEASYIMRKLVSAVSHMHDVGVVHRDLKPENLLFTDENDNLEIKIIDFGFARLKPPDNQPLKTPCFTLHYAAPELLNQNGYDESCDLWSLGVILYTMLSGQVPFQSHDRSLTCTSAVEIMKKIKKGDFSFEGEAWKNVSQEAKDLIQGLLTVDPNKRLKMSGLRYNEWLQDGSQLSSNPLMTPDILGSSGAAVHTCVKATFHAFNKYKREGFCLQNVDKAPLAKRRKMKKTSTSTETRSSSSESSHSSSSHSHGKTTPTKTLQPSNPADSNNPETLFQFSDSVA

[3] = target: Serine/threonine-protein kinase Chk2 (Homo sapiens) (UniProt O96017); experiment: Selectivity interaction (KinomeScan (DiscoverX)) EUB0000666a CHEK2; details: at 10 µM
Serine/threonine-protein kinase Chk2 (Homo sapiens), sequence (O96017 whole entry): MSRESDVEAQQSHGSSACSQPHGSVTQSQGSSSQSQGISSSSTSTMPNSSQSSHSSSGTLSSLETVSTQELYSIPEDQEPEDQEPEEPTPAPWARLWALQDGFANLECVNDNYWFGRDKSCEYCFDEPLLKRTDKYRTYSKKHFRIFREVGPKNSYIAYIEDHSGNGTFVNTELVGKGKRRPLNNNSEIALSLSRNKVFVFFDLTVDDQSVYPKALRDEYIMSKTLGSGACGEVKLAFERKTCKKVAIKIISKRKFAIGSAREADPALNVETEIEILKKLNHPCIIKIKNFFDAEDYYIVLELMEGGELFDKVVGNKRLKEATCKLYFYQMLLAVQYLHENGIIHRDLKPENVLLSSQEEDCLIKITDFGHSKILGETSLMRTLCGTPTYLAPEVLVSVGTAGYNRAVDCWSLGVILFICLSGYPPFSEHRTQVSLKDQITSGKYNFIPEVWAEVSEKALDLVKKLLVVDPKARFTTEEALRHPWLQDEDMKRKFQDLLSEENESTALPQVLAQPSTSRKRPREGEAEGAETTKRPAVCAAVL

[4] = target: Glycogen synthase kinase-3 alpha (Homo sapiens, UniProt P49840); details: at 10 µM
Glycogen synthase kinase-3 alpha, sequence (P49840 2-483 limits assumed): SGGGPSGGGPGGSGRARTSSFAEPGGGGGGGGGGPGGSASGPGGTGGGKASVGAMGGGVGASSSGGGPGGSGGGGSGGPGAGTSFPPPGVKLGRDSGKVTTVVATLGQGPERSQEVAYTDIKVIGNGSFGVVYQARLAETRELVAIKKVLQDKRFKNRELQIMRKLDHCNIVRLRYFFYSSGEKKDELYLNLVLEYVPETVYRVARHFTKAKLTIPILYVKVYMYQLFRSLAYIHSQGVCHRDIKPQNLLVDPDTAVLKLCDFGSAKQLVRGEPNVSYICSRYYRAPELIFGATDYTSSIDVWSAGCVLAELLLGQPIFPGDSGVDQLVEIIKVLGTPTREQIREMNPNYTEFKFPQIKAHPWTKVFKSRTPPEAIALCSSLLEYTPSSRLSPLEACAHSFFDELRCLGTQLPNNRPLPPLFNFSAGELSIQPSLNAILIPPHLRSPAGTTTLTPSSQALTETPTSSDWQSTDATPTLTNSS

[5] = target: T2, Beta-adrenergic receptor kinase 1 (Homo sapiens) (UniProt P25098); experiment: Selectivity interaction (ActivX KiNativ screen (ex vivo kinase selectivity in human PBMCs)) EUB0001619a ADRBK1; assay type: cell-based; details: PBMC, at 1 µM
T2 sequence (whole entry): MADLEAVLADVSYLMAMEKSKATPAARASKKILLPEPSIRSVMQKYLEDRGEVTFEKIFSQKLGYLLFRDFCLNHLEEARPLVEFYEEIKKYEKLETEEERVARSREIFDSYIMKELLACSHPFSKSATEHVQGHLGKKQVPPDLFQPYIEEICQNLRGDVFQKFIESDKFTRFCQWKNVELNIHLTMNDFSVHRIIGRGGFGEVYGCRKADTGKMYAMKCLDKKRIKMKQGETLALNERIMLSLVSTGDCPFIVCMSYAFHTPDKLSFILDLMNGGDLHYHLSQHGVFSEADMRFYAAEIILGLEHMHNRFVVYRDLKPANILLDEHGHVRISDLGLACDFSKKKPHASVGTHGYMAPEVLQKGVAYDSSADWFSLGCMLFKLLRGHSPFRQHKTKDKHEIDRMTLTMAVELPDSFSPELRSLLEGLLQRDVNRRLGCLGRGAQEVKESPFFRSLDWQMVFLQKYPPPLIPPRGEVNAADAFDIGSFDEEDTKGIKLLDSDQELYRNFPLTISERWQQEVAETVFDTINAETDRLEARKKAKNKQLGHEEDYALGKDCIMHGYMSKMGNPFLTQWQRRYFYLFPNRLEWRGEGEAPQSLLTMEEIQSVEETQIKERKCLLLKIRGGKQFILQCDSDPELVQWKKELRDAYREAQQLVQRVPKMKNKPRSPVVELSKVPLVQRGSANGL

[6] = target: T3, Serine/threonine-protein kinase ULK3 (Homo sapiens) (UniProt Q6PHR2); experiment: Selectivity interaction (KinomeScan (DiscoverX)) EUB0000607a ULK3; details: at 10 µM
T3 sequence (whole entry): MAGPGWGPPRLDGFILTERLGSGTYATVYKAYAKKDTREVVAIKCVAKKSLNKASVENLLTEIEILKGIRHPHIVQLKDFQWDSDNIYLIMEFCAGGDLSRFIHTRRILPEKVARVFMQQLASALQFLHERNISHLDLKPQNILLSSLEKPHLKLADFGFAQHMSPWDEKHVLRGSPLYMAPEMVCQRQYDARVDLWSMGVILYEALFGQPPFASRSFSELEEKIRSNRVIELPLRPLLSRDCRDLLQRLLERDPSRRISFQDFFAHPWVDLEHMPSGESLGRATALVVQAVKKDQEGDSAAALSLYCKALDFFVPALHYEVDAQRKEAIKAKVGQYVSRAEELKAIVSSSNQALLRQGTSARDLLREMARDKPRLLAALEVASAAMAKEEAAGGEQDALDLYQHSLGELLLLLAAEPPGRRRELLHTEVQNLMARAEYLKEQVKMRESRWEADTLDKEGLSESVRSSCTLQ

[7] = target: Macrophage-stimulating protein receptor (Homo sapiens, UniProt Q04912); experiment: Selectivity interaction (Ambit KINOMEscan and KiNATiv profiling in Jurkat cells) EUB0000090b MST1R; assay type: cell-based; details: at 1 µM
Macrophage-stimulating protein receptor, sequence (Q04912 25-304 limits assumed): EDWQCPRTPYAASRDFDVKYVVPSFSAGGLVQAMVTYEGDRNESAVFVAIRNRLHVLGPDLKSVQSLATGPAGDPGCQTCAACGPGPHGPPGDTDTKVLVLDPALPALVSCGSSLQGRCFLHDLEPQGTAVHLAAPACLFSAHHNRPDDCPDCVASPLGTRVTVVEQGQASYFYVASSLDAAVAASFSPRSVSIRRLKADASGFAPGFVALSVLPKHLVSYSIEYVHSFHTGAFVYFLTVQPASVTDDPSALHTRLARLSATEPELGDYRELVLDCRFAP
Macrophage-stimulating protein receptor, sequence (Q04912 310-1400 limits assumed): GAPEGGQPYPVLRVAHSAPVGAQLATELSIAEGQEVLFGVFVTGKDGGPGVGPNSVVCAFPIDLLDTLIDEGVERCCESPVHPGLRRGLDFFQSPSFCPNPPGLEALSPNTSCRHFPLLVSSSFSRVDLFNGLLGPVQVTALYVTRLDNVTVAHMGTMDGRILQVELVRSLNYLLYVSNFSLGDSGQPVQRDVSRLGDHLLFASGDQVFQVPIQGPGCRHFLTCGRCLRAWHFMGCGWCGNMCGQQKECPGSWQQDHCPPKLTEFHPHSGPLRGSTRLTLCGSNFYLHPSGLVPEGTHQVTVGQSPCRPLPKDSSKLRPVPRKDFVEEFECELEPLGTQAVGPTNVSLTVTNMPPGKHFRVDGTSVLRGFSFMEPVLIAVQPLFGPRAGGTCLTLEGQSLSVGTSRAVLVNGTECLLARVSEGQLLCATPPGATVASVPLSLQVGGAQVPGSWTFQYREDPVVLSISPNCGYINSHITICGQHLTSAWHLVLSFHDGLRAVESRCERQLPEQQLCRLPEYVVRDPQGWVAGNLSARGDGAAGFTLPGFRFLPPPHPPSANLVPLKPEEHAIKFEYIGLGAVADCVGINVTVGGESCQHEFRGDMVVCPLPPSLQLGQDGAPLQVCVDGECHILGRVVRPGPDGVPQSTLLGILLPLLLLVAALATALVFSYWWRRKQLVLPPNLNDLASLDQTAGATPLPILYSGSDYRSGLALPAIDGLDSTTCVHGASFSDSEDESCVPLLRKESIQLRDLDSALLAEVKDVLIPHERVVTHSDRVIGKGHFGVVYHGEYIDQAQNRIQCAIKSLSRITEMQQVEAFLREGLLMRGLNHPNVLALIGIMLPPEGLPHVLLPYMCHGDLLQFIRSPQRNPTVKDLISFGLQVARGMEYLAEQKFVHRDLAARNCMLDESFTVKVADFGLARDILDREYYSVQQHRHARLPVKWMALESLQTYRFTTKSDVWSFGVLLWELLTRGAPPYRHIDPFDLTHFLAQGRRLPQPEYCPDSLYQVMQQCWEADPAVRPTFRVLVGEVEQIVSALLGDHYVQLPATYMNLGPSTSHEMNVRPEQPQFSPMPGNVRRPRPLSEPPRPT

`C=CC(=O)Nc1ccc(C(=O)Nc2[nH]nc3c2CN(C(=O)N[C@H](CN(C)C)c2ccccc2)C3(C)C)cc1` showed a % of engagement [1] of -12.9%.

With `Cc1cc(F)c(C(=O)Nc2cccc(-c3nncn3C(C)C)n2)cc1-n1cnc(C2CC2)c1` the % of control [2] was 100%.

`O=C(NOC[C@H](O)CO)c1ccc(F)c(F)c1Nc1ccc(I)cc1F` showed a % of control [3] of 86%.

With `Cc1cc([C@@H](C)Nc2ccccc2C(=O)O)c2nc(N3CCOCC3)cc(=O)n2c1` [AZD-6482] the % of control [4] was 100%.

`N#Cc1cccc(-c2c[nH]c3ncnc(N4CCOCC4)c23)c1` gave a % of inhibition [5] of -5%.

With `CNC(=O)Nc1ccc(-c2nc(N3CC4CCC(C3)O4)c3cnn(C4CCC5(CC4)OCCO5)c3n2)cc1` the % of control [6] was 92%.

Compound `CN(C)C/C=C/C(=O)Nc1ccc(C(=O)N2CCCC(Nc3ncc(Cl)c(-c4c[nH]c5ccccc45)n3)C2)cc1` (configuration not stated) has a % of control [7] of 90%.
